Measurements: PubChem BioAssay (NCI)
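1) Cells in 96-well plates. 2) Compound, 48 h, 5 concentrations. 3) Linear interpolation between surrounding doses. 4) Unreached endpoint = highest concentration. TGI: concentration producing complete growth inhibition.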

How the values were obtained:
Experiment in all cases: growth of human tumour cells (NCI), 48 h
[1] = test system: 786-0 renal
[2] = test system: A498 renal
[3] = test system: ACHN renal
[4] = test system: CAKI-1 renal
[5] = test system: EKVX NSCLC
[6] = test system: HOP-92 NSCLC
[7] = test system: OVCAR-3 ovarian
[8] = test system: SK-MEL-5 melanoma
[9] = test system: SNB-19 CNS
[10] = test system: MDA-MB-435

## CC(=O)NC1=C(C)C(=O)c2c(nc3n2CCC3O)C1=O (stereo not given)
[1]
  TGI: > 100 µM
[2]
  TGI: > 100 µM
[3]
  TGI: > 100 µM
[4]
  TGI: > 100 µM
[5]
  TGI: 51.4 µM
[6]
  TGI: 33.3 µM
[7]
  TGI: > 46.1 µM
[8]
  TGI: > 100 µM
[9]
  TGI: > 100 µM

## Cc1cn(CC2=NCCCN2)c(=O)[nH]c1=O
[1]
  TGI: > 100 µM
[2]
  TGI: > 100 µM
[3]
  TGI: > 100 µM
[5]
  TGI: > 100 µM
[6]
  TGI: > 100 µM
[8]
  TGI: > 100 µM
[9]
  TGI: > 100 µM

## O=C(Nc1nnc(-c2ccccc2)o1)C(SC(=S)N1CCOCC1)c1ccccc1 (stereo not given)
[1]
  TGI: > 100 µM
[2]
  TGI: 89.6 µM
[3]
  TGI: > 100 µM
[4]
  TGI: > 100 µM
[5]
  TGI: 55.5 µM
[10]
  TGI: > 100 µM
[7]
  TGI: 79.7 µM
[8]
  TGI: 38.7 µM
[9]
  TGI: > 100 µM

## COc1ccccc1NC(=S)N/N=C(/C)c1ccccn1
[1]
  TGI: 5.17 µM
[3]
  TGI: 12.9 µM
[4]
  TGI: > 100 µM
[5]
  TGI: > 100 µM
[6]
  TGI: > 100 µM
[10]
  TGI: > 100 µM
[9]
  TGI: > 100 µM

## CCOC(=O)C(NC(=O)CC(C)C)(Nc1ccc(C(F)(F)F)cc1)C(F)(F)F (stereo not given)
[1]
  TGI: > 100 µM
[3]
  TGI: 91 µM
[5]
  TGI: > 100 µM
[6]
  TGI: > 100 µM
[10]
  TGI: > 100 µM
[7]
  TGI: > 100 µM
[8]
  TGI: > 100 µM
[9]
  TGI: > 100 µM

## CCOC(=O)/C(C#N)=C/c1ccc(CO)o1
[1]
  TGI: > 100 µM
[2]
  TGI: > 100 µM
[3]
  TGI: > 100 µM
[4]
  TGI: > 100 µM
[5]
  TGI: > 100 µM
[10]
  TGI: > 100 µM
[7]
  TGI: > 100 µM
[8]
  TGI: > 100 µM
[9]
  TGI: > 100 µM

## O=C(NNc1cn[nH]c(=O)c1Cl)/C(=C/c1ccc2c(c1)OCO2)NC(=O)c1ccccc1
[1]
  TGI: > 100 µM
[3]
  TGI: > 100 µM
[4]
  TGI: 56.2 µM
[5]
  TGI: > 100 µM
[6]
  TGI: > 100 µM
[10]
  TGI: > 100 µM
[7]
  TGI: > 100 µM
[8]
  TGI: > 100 µM
[9]
  TGI: > 100 µM

## Cc1ccc(C)c(COCCOCn2cc(Br)c(N)nc2=O)c1
[1]
  TGI: > 100 µM
[2]
  TGI: > 100 µM
[3]
  TGI: > 100 µM
[4]
  TGI: > 100 µM
[5]
  TGI: > 100 µM
[6]
  TGI: > 100 µM
[10]
  TGI: > 100 µM
[7]
  TGI: > 100 µM
[9]
  TGI: > 100 µM

## CCOC(=O)CCc1c(C(=O)OCC)[nH]c(/C=C2\NC(=O)C(C)=C2CC)c1C
[1]
  TGI: 27.5 µM
[3]
  TGI: 41.2 µM
[4]
  TGI: 78.7 µM
[5]
  TGI: 50.3 µM
[6]
  TGI: 45.1 µM
[10]
  TGI: > 100 µM
[7]
  TGI: 49.6 µM

## COc1ccc(-c2nc(-c3cc4ccccc4oc3=O)cs2)cc1
[1]
  TGI: > 100 µM
[3]
  TGI: > 100 µM
[4]
  TGI: > 100 µM
[5]
  TGI: > 100 µM
[6]
  TGI: > 100 µM
[10]
  TGI: > 100 µM
[8]
  TGI: > 100 µM
[9]
  TGI: > 100 µM

## CCc1nn(S(=O)(=O)c2ccc(C)cc2)c2c1CS(=O)(=O)CC2
[1]
  TGI: > 100 µM
[2]
  TGI: > 100 µM
[3]
  TGI: > 100 µM
[4]
  TGI: > 100 µM
[5]
  TGI: > 100 µM
[10]
  TGI: > 100 µM
[7]
  TGI: > 100 µM
[8]
  TGI: > 100 µM
[9]
  TGI: > 100 µM

## CC(C)(C)n1c(=O)n(C(=O)C(Cl)(Cl)Cl)n(C(=O)C(Cl)(Cl)Cl)c1=O
[1]
  TGI: > 100 µM
[3]
  TGI: > 100 µM
[4]
  TGI: > 100 µM
[5]
  TGI: > 100 µM
[6]
  TGI: > 100 µM
[10]
  TGI: > 100 µM
[7]
  TGI: > 100 µM
[8]
  TGI: > 100 µM
[9]
  TGI: > 100 µM
